Data as given in ChEMBL document CHEMBL1122538, “Functional group contributions to drug-receptor interactions” (J Med Chem, 1984).

Assay: Binding energy by using the equation deltaG obsd = -RT ln KD
Format: ADME

| Molecule | Binding energy [kcal/mol] |
| --- | --- |
| FLUPENTIXOL | 11.5 |
| CNCCCN1c2ccccc2CCc2ccccc21 [DESIPRAMINE] | 12.2 |
| Cc1ccc(/C(=C\CN2CCCC2)c2ccccn2)cc1 [TRIPROLIDINE] | 13.6 |
| O=C1CN=C(c2ccccn2)c2cc(Br)ccc2N1 [BROMAZEPAM] | 10.3 |
| Nc1ncnc2c1ncn2[C@@H]1O[C@H](CO)C[C@H]1O [CORDYCEPIN] | 8.2 |
| O=C(O)CC(O)(CC(=O)O)C(=O)O [CITRIC ACID] | 5 |
| CC(Oc1c(Cl)cccc1Cl)C1=NCCN1 (stereo unspecified) [LOFEXIDINE] | 11.8 |
| OC[C@H]1O[C@@H](n2cnc3c2N=CNC[C@H]3O)[C@H](O)[C@@H]1O [COFORMYCIN] | 15 |
| O=C(O)CCc1ccccc1 [PHENYL PROPIONIC ACID] | 5.5 |
| O=P(O)(O)OC[C@H]1OC(O)(COP(=O)(O)O)[C@@H](O)[C@@H]1O (stereo partly specified) [FOSFRUCTOSE] | 10.2 |
| O=P(O)(O)/C=C/CCO | 4.1 |
| BIBROCATHOL | 10.7 |
| O=C(O)C(COP(=O)(O)O)[C@H](O)[C@H](O)COP(=O)(O)O (stereo partly specified) | 8.2 |
| C[C@@H]1O[C@@H](O[C@H]2C[C@@H](O)[C@]3(CO)[C@H]4[C@H](O)C[C@]5(C)[C@@H](C6=CC(=O)OC6)CC[C@]5(O)[C@@H]4CC[C@]3(O)C2)[C@H](O)[C@H](O)[C@H]1O [OUABAIN] | 11.5 |
| NCCc1ccccc1 [PHENETHYLAMINE] | 5.5 |
| Cc1csc(Cl)c1NC1=NCCN1 [TIAMENIDINE] | 11.8 |
| CN1CCC[C@H]1c1cccnc1 [NICOTINE] | 11.2 |
| Cc1nc(N)nc(N)c1-c1ccc(Cl)c(Cl)c1 [METOPRINE] | 12.3 |
| O=C(CCCN1CCC2(CC1)C(=O)NCN2c1ccccc1)c1ccc(F)cc1 [SPIPERONE] | 14 |
| CC[C@@H](CO)NC(=O)[C@@H]1C=C2c3cccc4c3c(cn4C)C[C@H]2N(C)C1 [METHYSERGIDE] | 12.3 |
| CN(C)CCc1c[nH]c2ccc(O)cc12 [BUFOTENINE] | 9.4 |
| c1ccc2c(CC3=NCCN3)cccc2c1 [NAPHAZOLINE] | 11.9 |

| Molecule | Binding energy [kcal/mol] |
| --- | --- |
| CCCCC1C(=O)N(c2ccccc2)N(c2ccccc2)C1=O [PHENYLBUTAZONE] | 7.3 |
| C=CCc1ccccc1OCC(O)CNC(C)C (stereo unspecified) [ALPRENOLOL] | 12.9 |
| O=C1CC(=O)N([C@@H]2O[C@H](COP(=O)(O)O)[C@@H](O)[C@H]2O)C(=O)N1 | 15.1 |
| O=C(O)Cc1cc(I)c(Oc2ccc(O)c(I)c2)c(I)c1 [TIRATRICOL] | 9.3 |
| O=C(O)Cc1ccccc1Nc1c(Cl)cccc1Cl [DICLOFENAC] | 9.6 |
| O=c1[nH]c2ccccc2n1C1CCN(CCCC(c2ccc(F)cc2)c2ccc(F)cc2)CC1 [PIMOZIDE] | 12.8 |
| CN1CCN(C2=Nc3cc(Cl)ccc3Nc3ccccc32)CC1 [CLOZAPINE] | 12.3 |
| C[C@@H]1C[C@H]2[C@@H]3CCC4=CC(=O)C=C[C@]4(C)[C@@]3(F)[C@@H](O)C[C@]2(C)[C@@]1(O)C(=O)CO [DEXAMETHASONE] | 10.9 |
| CCCC(CCC)C(=O)O [VALPROIC ACID] | 6.1 |
| O=C(O)C(Cc1ccccc1)OP(=O)(O)O (stereo unspecified) | 9.3 |
| O=C1Nc2ccc(Cl)cc2C(c2ccccc2Cl)=NC1O (stereo unspecified) [LORAZEPAM] | 11.6 |
| O=C(O)CC(CC(=O)CP(=O)(O)O)C(=O)O (stereo unspecified) | 10.9 |
| COC(=O)[C@@H]1[C@H]2C[C@H]3c4[nH]c5ccccc5c4CCN3C[C@@H]2CC[C@@H]1O [YOHIMBINE] | 11.9 |
| COc1cccc(OC)c1OCCNCC1COc2ccccc2O1 (stereo unspecified) | 12.9 |
| CN(C)CCC=C1c2ccccc2CCc2ccccc21 [AMITRIPTYLINE] | 12.3 |
| C[N+](C)(C)C [TETRAMETHYLAMMONIUM ION] | 3.6 |
| CN1C(=O)CN=C(c2ccccc2)c2cc(Cl)ccc21 [DIAZEPAM] | 11.5 |
| O=C(O)C(=O)O [OXALIC ACID] | 7.8 |
| COc1ccc(CN(CCN(C)C)c2ccccn2)cc1 [PYRILAMINE] | 12.7 |
| NCCc1c[nH]c2ccccc12 [TRYPTAMINE] | 7.9 |
| NC[C@H](O)c1ccc(O)c(O)c1 [NOREPINEPHRINE] | 12.1 |
| CC(=O)CC(c1ccccc1)c1c(O)c2ccccc2oc1=O (stereo unspecified) [WARFARIN] | 6.9 |

| Molecule | Binding energy [kcal/mol] |
| --- | --- |
| CCN [ETHYLAMINE] | 2.2 |
| CSc1ccc2c(c1)N(CCC1CCCCN1C)c1ccccc1S2 (stereo unspecified) [THIORIDAZINE] | 11 |
| CNC(=O)Oc1cccc2ccccc12 [CARBARIL] | 6.4 |
| CC(CN1CCOCC1)C(C(=O)N1CCCC1)(c1ccccc1)c1ccccc1 (stereo not drawn) [RACEMORAMIDE] | 12.3 |
| CO[C@]12CC[C@@]3(C[C@@H]1[C@](C)(O)C(C)(C)C)[C@H]1Cc4ccc(O)c5c4[C@@]3(CCN1CC1CC1)[C@H]2O5 [BUPRENORPHINE] | 13.4 |
| Clc1cccc(Cl)c1N=C1NCCN1 [CLONIDINE] | 12.3 |
| NC(=O)C1(N2CCCCC2)CCN(CCCC(=O)c2ccc(F)cc2)CC1 [PIPAMPERONE] | 12.4 |
| NC(CO)Cc1ccccc1 (stereo unspecified) | 7.1 |
| OC[C@H]1OC(O)[C@H](O)[C@@H](O)[C@@H]1O (stereo partly specified) [DEXTROSE] | 8.7 |
| CCN(CC)C(=O)[C@@H]1C=C2c3cccc4[nH]cc(c34)C[C@H]2N(C)C1 [LYSERGIDE] | 12.7 |
| O=P(O)(O)O [PHOSPHORIC ACID] | 7.7 |
| CC(Cc1ccccc1)NCCC(c1ccccc1)c1ccccc1 (stereo unspecified) [PRENYLAMINE] | 8.2 |
| COc1cc2nc(N3CCN(C(=O)c4ccco4)CC3)nc(N)c2cc1OC [PRAZOSIN] | 13.1 |
| O=P(O)(O)OC[C@H]1O[C@](O)(CO)[C@@H](O)[C@@H]1O | 5.7 |
| CN(C)CCC(c1ccc(Cl)cc1)c1ccccn1 (stereo unspecified) [CHLORPHENIRAMINE] | 12.8 |
| Cc1cc(C(C)(C)C)c(O)c(C)c1CC1=NCCN1 [OXYMETAZOLINE] | 12.2 |
| CCC(=O)C1(c2cccc(O)c2)CCN(C)CC1 [KETOBEMIDONE] | 10.8 |
| NC(=O)N1c2ccccc2C=Cc2ccccc21 [CARBAMAZEPINE] | 5.9 |
| O=C(CCCN1CCC(O)(c2ccc(Cl)cc2)CC1)c1ccc(F)cc1 [HALOPERIDOL] | 12.3 |
| NC(=O)C(N)Cc1ccccc1 (stereo unspecified) | 6.1 |
| O=c1oc2ccccc2c(O)c1Cc1c(O)c2ccccc2oc1=O [DICUMAROL] | 8.8 |
| NCCc1ccc(O)c(O)c1 [DOPAMINE] | 11.8 |
